In US20240132431A1, “METHOD FOR ALKYLATING ACIDIC FUNCTIONAL GROUP” (Chugai Seiyaku Kabushiki Kaisha, priority 2021, published 2024):

Target: T1, Bcl-2 protein (Recombinant Human Bcl-2 Protein) (Homo sapiens, UniProt P10415)
T1 construct: purchased Novus NBP2-34889
Assay: Binding evaluation of mixture library compounds to Bcl-2 using AS-MS (affinity selection mass spectrometry)
Conditions: for ASMS ratio (%) n = 1 / ASMS ratio (%) n = 2: ASMS Ratio(%)=(A−C)/B×100; for ASMS ratio (%) n = 1: replicate n = 1; for ASMS ratio (%) n = 2: replicate n = 2
How it was run: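 Readout is ASMS Ratio (%), (A−C)/B×100, from reversed-phase LC/MS of SEC-passed extracts, with protein-free unfiltered standard (B) and protein-free SEC blank (C). Recombinant human Bcl-2 at 20 μM final met ~1200 pooled compounds at […] each for 1 h, 23° C., dark, in Tris-HCl pH 7.4 buffer.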

[1] = AS-MS on the mixture of 1200 library compounds
[2] = AS-MS, mixture of 1200 compounds, Bcl-2

T1 sequence (P10415 whole entry): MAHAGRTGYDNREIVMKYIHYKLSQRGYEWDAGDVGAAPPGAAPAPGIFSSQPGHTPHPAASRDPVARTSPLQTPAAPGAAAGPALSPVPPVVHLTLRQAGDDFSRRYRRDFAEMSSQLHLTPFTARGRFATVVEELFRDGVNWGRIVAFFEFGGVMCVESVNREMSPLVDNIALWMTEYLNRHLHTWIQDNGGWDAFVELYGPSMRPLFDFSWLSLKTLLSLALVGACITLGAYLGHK

Compound | ASMS ratio (%) (n = 1) | ASMS ratio (%) (n = 2) | ASMS ratio (%) n = 1 [2] [%] | ASMS ratio (%) n = 2 [2] [%] | other results
CCOc1cccc(-c2ccc(C(=O)N3CCN(c4ccc(C(=O)NS(=O)(=O)CCC(F)(F)F)cc4)CC3)cc2C)c1 [B2N025-01, 4-[4-[4-(3-Ethoxyphenyl)-3-methylbenzoyl]piperazin-1-yl]-N-(3,3,3-trifluoropropylsulfonyl)benzamide] | 0.0 | 0.0 |  |  | 
CCOc1cccc(-c2ccc(CN3CCN(c4ccc(C(=O)NS(=O)(=O)C(C)(C)C)cc4)CC3)cc2C)c1 [B2L047-01, N-tert-Butylsulfonyl-4-[4-[[4-(3-ethoxyphenyl)-3-methylphenyl]methyl]piperazin-1-yl]benzamide] | 0.0 | 0.0 |  |  | 
CCOc1cncc(-c2ccc(C(=O)N3CCN(c4ccc(C(=O)N(CC)CC)cc4)CC3)cc2C)c1 [B4J026-01, 4-[4-[4-(5-Ethoxypyridin-3-yl)-3-methylbenzoyl]piperazin-1-yl]-N,N-diethylbenzamide] |  |  |  |  | ASMS ratio (%) n = 1 [1]: −3.6%; ASMS ratio (%) n = 2 [1]: −5.9%
CCOc1cncc(-c2ccc(C(C)N3CCN(c4ccc(C(=O)NCC(F)(F)F)cc4)CC3)c(F)c2)c1 (centres unmarked) [B1K100-01, 4-[4-[1-[4-(5-Ethoxypyridin-3-yl)-2-fluorophenyl]ethyl]piperazin-1-yl]-N-(2,2,2-trifluoroethyl)benzamide] |  |  | 0.0 | 0.0 | 
CCOc1cncc(-c2csc(C(=O)N3CCN(c4ccc(C(=O)NCC56CC7CC(CC(C7)C5)C6)nn4)CC3)c2)c1 [B1A002-01] |  |  | 0.0 | 4.9 | 
CCOc1cccc(-c2cc(CN3CCN(c4ccc(C(=O)NS(=O)(=O)C(C)(C)C)cc4)CC3)cc(OC(C)C)c2)c1 [B2L057-01, N-tert-Butylsulfonyl-4-[4-[[3-(3-ethoxyphenyl)-5-propan-2-yloxyphenyl]methyl]piperazin-1-yl]benzamide] | 0.0 | 0.0 |  |  | 
6-[4-[[4-(5-Ethoxypyridin-3-yl)naphthalen-1-yl]methyl]piperazin-1-yl]-N-propylpyridazine-3-carboxamide [B1M047-01] |  |  | 1.1 | 0.3 | 
CCOc1cccc(-c2cc(CN3CCN(c4ccc(C(=O)N(CC)CC)nn4)CC3)cc(OC(C)C)c2)c1 [B4J083-01, 6-[4-[[3-(3-Ethoxyphenyl)-5-propan-2-yloxyphenyl]methyl]piperazin-1-yl]-N,N-diethylpyridazine-3-carboxamide] |  |  |  |  | ASMS ratio (%) n = 1 (AS-MS, mixture library, Bcl-2): 0.0%; ASMS ratio (%) n = 2 (AS-MS, mixture library, Bcl-2): 0.0%
4-[4-[3-tert-Butyl-5-(5-ethoxypyridin-3-yl)benzoyl]piperazin-1-yl]-N-propylbenzamide [B1M063-01] |  |  | 0.4 | −1.1 | 
CCOc1cccc(-c2ccc(C(=O)N3CCN(c4ccc(C(=O)NS(=O)(=O)CC56CC7CC(CC(C7)C5)C6)cc4)CC3)cc2C)c1 [B2A025-01, N-(1-Adamantylmethylsulfonyl)-4-[4-[4-(3-ethoxyphenyl)-3-methylbenzoyl]piperazin-1-yl]benzamide] |  |  |  |  | ASMS ratio (%) n = 1 (AS-MS, mixture library, Bcl-2): 4.6%; ASMS ratio (%) n = 2 (AS-MS, mixture library, Bcl-2): −2.7%
6-[4-[3-[4-(3-Ethoxyphenyl)pyrazol-1-yl]-5-(trifluoromethyl)benzoyl]piperazin-1-yl]-N-propylpyridazine-3-carboxamide [B1M024-01] |  |  | 0.0 | 0.0 | 
CCOc1cccc(-c2cc(C(=O)N3CCN(c4ccc(C(=O)NS(C)(=O)=O)nn4)CC3)cc(C(F)(F)F)c2)c1 [B2I017-01, 6-[4-[3-(3-Ethoxyphenyl)-5-(trifluoromethyl)benzoyl]piperazin-1-yl]-N-methylsulfonylpyridazine-3-carboxamide] |  |  |  |  | ASMS ratio (%) n = 1 (AS-MS, mixture library, Bcl-2): 0.0%; ASMS ratio (%) n = 2 (AS-MS, mixture library, Bcl-2): 0.0%
CCOc1cncc(-c2csc(CN3CCN(c4ccc(C(=O)NS(=O)(=O)c5ccc(NCCSc6ccccc6)c([N+](=O)[O-])c5)nn4)CC3)c2)c1 [B2Q094-01, 6-[4-[[4-(5-Ethoxypyridin-3-yl)thiophen-2-yl]methyl]piperazin-1-yl]-N-[3-nitro-4-(2-phenylsulfanylethylamino)phenyl]sulfonylpyridazine-3-carboxamide] |  |  |  |  | ASMS ratio (%) n = 1 (AS-MS, mixture library, Bcl-2): 7.2%; ASMS ratio (%) n = 2 (AS-MS, mixture library, Bcl-2): 2.5%
CCOc1cccc(-c2cc(CN3CCN(c4ccc(C(=O)NCC(F)(F)F)nn4)CC3)cc(OC(C)C)c2)c1 [B1K083-01] |  |  | 0.0 | 0.0 | 
CCOc1cccc(C#Cc2cncc(C(=O)N3CCN(c4ccc(C(=O)NS(C)(=O)=O)cc4)CC3)c2)c1 [B2I031-01, 4-[4-[5-[2-(3-Ethoxyphenyl)ethynyl]pyridine-3-carbonyl]piperazin-1-yl]-N-methylsulfonylbenzamide] |  |  |  |  | ASMS ratio (%) n = 1 (AS-MS, mixture library, Bcl-2): 0.0%; ASMS ratio (%) n = 2 (AS-MS, mixture library, Bcl-2): 0.0%
CCOc1cncc(-c2ccc(C(=O)N3CCN(c4ccc(C(=O)NCC56CC7CC(CC(C7)C5)C6)nn4)CC3)c3ccccc23)c1 [B1A014-01, N-(1-Adamantylmethyl)-6-[4-[4-(5-ethoxypyridin-3-yl)naphthalene-1-carbonyl]piperazin-1-yl]pyridazine-3-carboxamide] |  |  | 8.1 | 0.0 | 
4-[4-[[4-(5-Ethoxypyridin-3-yl)-3-fluorophenyl]methyl]piperazin-1-yl]-N-propylbenzamide [B1M085-01] |  |  |  |  | ASMS ratio (%) n = 1 [1]: 0.0%; ASMS ratio (%) n = 2 [1]: 0.0%
CCOc1cncc(-c2ccc(CN3CCN(c4ccc(C(=O)NCC(F)(F)F)cc4)CC3)c(CC)c2)c1 [B1K050-01] |  |  | 0.0 | 0.0 | 
CCOc1cccc(-c2ccc(CN3CCN(c4ccc(C(=O)N(C)CC56CC7CC(CC(C7)C5)C6)nn4)CC3)c(CC)c2)c1 [B3A075-01, N-(1-Adamantylmethyl)-6-[4-[[4-(3-ethoxyphenyl)-2-ethylphenyl]methyl]piperazin-1-yl]-N-methylpyridazine-3-carboxamide] |  |  |  |  | ASMS ratio (%) n = 1 [1]: −5.8%; ASMS ratio (%) n = 2 [1]: −16.0%
CCOc1cncc(-c2csc(CN3CCN(c4ccc(C(=O)NS(=O)(=O)c5ccc(NCCSc6ccccc6)c(C(F)(F)F)c5)cc4)CC3)c2)c1 [B2R068-01, 4-[4-[[4-(5-Ethoxypyridin-3-yl)thiophen-2-yl]methyl]piperazin-1-yl]-N-[4-(2-phenylsulfanylethylamino)-3-(trifluoromethyl)phenyl]sulfonylbenzamide] | 0.0 | 0.0 |  |  | 
CCOc1cncc(-c2ccc(CN3CCN(c4ccc(C(=O)NS(=O)(=O)CC56CC7CC(CC(C7)C5)C6)nn4)CC3)cc2F)c1 [B2A078-01, N-(1-Adamantylmethylsulfonyl)-6-[4-[[4-(5-ethoxypyridin-3-yl)-3-fluorophenyl]methyl]piperazin-1-yl]pyridazine-3-carboxamide] |  |  |  |  | ASMS ratio (%) n = 1 (AS-MS, mixture library, Bcl-2): 15.2%; ASMS ratio (%) n = 2 (AS-MS, mixture library, Bcl-2): 9.3%
4-[4-[[4-(5-Ethoxypyridin-3-yl)thiophen-2-yl]methyl]piperazin-1-yl]-N-propylbenzamide [B1M050-01] |  |  | −2.0 | −0.2 | 
CCOc1cccc(-c2cc(C(=O)N3CCN(c4ccc(C(=O)NS(=O)(=O)C(C)(C)C)cc4)CC3)cc(C(C)(C)C)c2)c1 [B2L037-01, 4-[4-[3-tert-Butyl-5-(3-ethoxyphenyl)benzoyl]piperazin-1-yl]-N-tert-butylsulfonylbenzamide] | 0.0 | 0.0 |  |  | 

Continued, in another order:

ASMS ratio (%) (n = 1) | ASMS ratio (%) (n = 2) | Compound | ASMS ratio (%) n = 1 [2] [%] | ASMS ratio (%) n = 2 [2] [%] | other results
0.0 | 0.0 | CCOc1cccc(C#Cc2ccccc2CN2CCN(c3ccc(C(=O)NS(=O)(=O)CCC(F)(F)F)nn3)CC2)c1 [B2N095-01, 6-[4-[[2-[2-(3-Ethoxyphenyl)ethynyl]phenyl]methyl]piperazin-1-yl]-N-(3,3,3-trifluoropropylsulfonyl)pyridazine-3-carboxamide] |  |  | 
4.3 | 7.3 | CCOc1cncc(-c2ccccc2CCC(=O)N2CCN(c3ccc(C(=O)NS(=O)(=O)C(C)(C)C)nn3)CC2)c1 [B2L012-01, N-tert-Butylsulfonyl-6-[4-[3-[2-(5-ethoxypyridin-3-yl)phenyl]propanoyl]piperazin-1-yl]pyridazine-3-carboxamide] |  |  | 
−1.9 | −2.5 | CCOc1cncc(-c2cc(C(=O)N3CCN(c4ccc(C(=O)NS(=O)(=O)C(C)(C)C)nn4)CC3)cc(C(F)(F)F)c2)c1 [B2L018-01, N-tert-Butylsulfonyl-6-[4-[3-(5-ethoxypyridin-3-yl)-5-(trifluoromethyl)benzoyl]piperazin-1-yl]pyridazine-3-carboxamide] |  |  | 
5.1 | 7.8 | CCOc1cncc(-c2cc(C(=O)N3CCN(c4ccc(C(=O)NS(=O)(=O)c5ccc(NCCSc6ccccc6)c(C(F)(F)F)c5)nn4)CC3)cc(C(F)(F)F)c2)c1 [B2R018-01, 6-[4-[3-(5-Ethoxypyridin-3-yl)-5-(trifluoromethyl)benzoyl]piperazin-1-yl]-N-[4-(2-phenylsulfanylethylamino)-3-(trifluoromethyl)phenyl]sulfonylpyridazine-3-carboxamide] |  |  | 
3.9 | 19.7 | CCOc1cncc(-c2ccc(CN3CCN(c4ccc(C(=O)NS(=O)(=O)c5ccc(NCCSc6ccccc6)c(C(F)(F)F)c5)nn4)CC3)c(CC)c2)c1 [B2R076-01, 6-[4-[[4-(5-Ethoxypyridin-3-yl)-2-ethylphenyl]methyl]piperazin-1-yl]-N-[4-(2-phenylsulfanylethylamino)-3-(trifluoromethyl)phenyl]sulfonylpyridazine-3-carboxamide] |  |  | 
